# Patent publication US20240271082A1, “[…]-MODIFIED SAC[…] STRAINS AS PR[…] […] AGENTS” (Fzata, Inc., priority 2021, published 2024)
# Tests used:
# [1] = tested on: Crohn's disease; conditions: systemic administration; cited from earlier work
# [2] = tested on: patients with COVID-19 pneumonia and systemic hyperinflammation; conditions: human, in vivo; cited from earlier work
# [3] = tested on: S. boulardii (Sb); test: Methotrexate effective dose in S. boulardii; type: cell-based; conditions: MTX alone, up to 500 nM, 24 hour reading
# Protocol: Cells were seeded at OD=0.2, 24 hour reading.
# [4] = target: hTNF-α (Homo sapiens, UniProt P01375); test: Neutralization of human TNF-α cytotoxicity on L929 cells; conditions: read-out: IC50, block hTNF-α-induced cytotoxicity
# Chain of hTNF-α (P01375 77-233 limits assumed): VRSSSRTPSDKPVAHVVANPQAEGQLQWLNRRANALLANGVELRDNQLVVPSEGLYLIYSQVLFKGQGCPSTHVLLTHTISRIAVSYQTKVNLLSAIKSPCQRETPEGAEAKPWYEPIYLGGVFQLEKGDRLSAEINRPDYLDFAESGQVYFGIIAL
# Protocol: After 24h incubation, the antibody-mediated inhibitions of cytotoxicity were measured.
compound,measurement,setting,value
infliximab: anti-TNF monoclonal antibody,clinical response in Crohn's disease,[1],drastic clinical improvement
Mavrilimumab: investigational fully-human monoclonal antibody that targets GM-CSF receptor alpha,proportion of patients alive and off oxygen therapy at day 14,[2],"hyperinflammation. Unfortunately, there was no significant difference"
"CN(Cc1cnc2nc(N)nc(N)c2n1)c1ccc(C(=O)N[C@@H](CCC(=O)O)C(=O)O)cc1 [MTX, methotrexate]",growth inhibition of S. boulardii,[3],not enough to cause an effect on growth inhibition
Adalimumab [Humira],IC50,[4],0.028 nM
